Laboratory results from the supplement of paper PMC10307832.

Experiments:
Test in all cases: relative viability (nuclei count vs DMSO), 5 days (fraction); higher = more cells survive
KN-93 = compound: CN(C/C=C/C1=CC=C(C=C1)Cl)CC2=CC=CC=C2N(CCO)S(=O)(=O)C3=CC=C(C=C3)OC [KN-93]
In short: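 Only plates meeting two conditions passed: control CV below 25% and at least one doubling. Lung cancer cell lines, kept overnight at 37 °C in 1536-well plates, were pinned with five library-drug doses (not always all listed) √10 apart on vehicle-anchored plates and grown 5 days without medium change. A one-step fix, permeabilisation and Hoechst stain preceded 4× imaging and MetaXpress nuclear counting. Viability equals treated-well nuclei divided by vehicle-well nuclei, as the median over plates.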

KN-93 + Linsitinib = compound: CN(C/C=C/C1=CC=C(C=C1)Cl)CC2=CC=CC=C2N(CCO)S(=O)(=O)C3=CC=C(C=C3)OC [KN-93] + C[C@]1(O)C[C@@H](c2nc(-c3ccc4ccc(-c5ccccc5)nc4c3)c3c(N)nccn32)C1 [Linsitinib] (partner 1 µM)
In short: (§1)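 For relative viability, nuclei counts in treated wells were divided by those in vehicle wells. Lung cancer cell lines had been pin-tool dosed in 1536-well plates the day after seeding and cultured for 5 days, then fixed and stained in one step (final 0.05% Triton X-100, 1% formaldehyde, 1 ug/ml Hoechst) and imaged at 4×. Doses were one drug alone or a fixed anchor-drug dose plus five library-drug doses (not always all listed) in √10 steps, and values are duplicate-plate medians.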

KN-93 + Foretinib = compound: CN(C/C=C/C1=CC=C(C=C1)Cl)CC2=CC=CC=C2N(CCO)S(=O)(=O)C3=CC=C(C=C3)OC [KN-93] + COc1cc2c(Oc3ccc(NC(=O)C4(C(=O)Nc5ccc(F)cc5)CC4)cc3F)ccnc2cc1OCCCN1CCOCC1 [Foretinib] (partner 0.25 µM)
In short: as §1

KN-93 + Phenformin = compound: CN(C/C=C/C1=CC=C(C=C1)Cl)CC2=CC=CC=C2N(CCO)S(=O)(=O)C3=CC=C(C=C3)OC [KN-93] + N=C(N)NC(=N)NCCc1ccccc1 [Phenformin] (partner 250 µM)
In short: as §1

KN-93 + Crizotinib = compound: CN(C/C=C/C1=CC=C(C=C1)Cl)CC2=CC=CC=C2N(CCO)S(=O)(=O)C3=CC=C(C=C3)OC [KN-93] + C[C@@H](Oc1cc(-c2cnn(C3CCNCC3)c2)cnc1N)c1c(Cl)ccc(F)c1Cl [Crizotinib] (partner 1 µM)
In short: as §1

Row | Cell Line | relative viability (KN-93; 0.08 µM) | relative viability (KN-93; 0.253 µM) | relative viability (KN-93; 2.53 µM) | relative viability (KN-93; 8 µM) | relative viability (KN-93 + Linsitinib; first compound 0.08 µM) | relative viability (KN-93 + Linsitinib; first compound 0.253 µM) | relative viability (KN-93 + Linsitinib; first compound 2.53 µM) | relative viability (KN-93 + Linsitinib; first compound 8 µM) | relative viability (KN-93 + Foretinib; first compound 0.08 µM) | relative viability (KN-93 + Foretinib; first compound 0.253 µM) | relative viability (KN-93 + Foretinib; first compound 2.53 µM) | relative viability (KN-93 + Foretinib; first compound 8 µM) | relative viability (KN-93 + Phenformin; first compound 0.08 µM) | relative viability (KN-93 + Phenformin; first compound 0.253 µM) | relative viability (KN-93 + Phenformin; first compound 2.53 µM) | relative viability (KN-93 + Phenformin; first compound 8 µM) | relative viability (KN-93 + Crizotinib; first compound 0.08 µM) | relative viability (KN-93 + Crizotinib; first compound 0.253 µM) | relative viability (KN-93 + Crizotinib; first compound 2.53 µM) | relative viability (KN-93 + Crizotinib; first compound 8 µM)
1 | NCI-H2009 | 1.01 | 1.05 | 0.922 | 0.603 | 1.16 | 1.24 | 1.17 | 0.94 | 1.2 | 1.37 | 1.29 | 0.914 | 0.426 | 0.557 | 0.492 | 0.317 | 1.18 | 1.1 | 1.04 | 0.474
2 | BEN | 0.881 | 0.969 | 1.08 | 0.688 | – | 1.31 | 1.03 | 0.786 | 0.917 | 0.599 | 0.714 | 0.455 | 0.239 | 0.26 | 0.295 | 0.275 | – | 1.13 | 1.02 | 0.67
3 | NCI-H441 | 0.709 | 1.14 | 1.3 | 0.731 | 0.48 | 0.818 | 0.799 | 0.245 | 1.08 | 1.23 | 1.2 | 0.73 | 0.828 | 1.06 | 0.921 | 0.779 | 0.716 | 0.879 | 0.76 | 0.565
4 | NCI-H1915 | 0.952 | 1.24 | 0.993 | 0.947 | 1.03 | 1.16 | 1.12 | 1.03 | 0.952 | 1.23 | 1.25 | 0.912 | 0.382 | 0.421 | 0.408 | 0.359 | 0.705 | 1.35 | 0.953 | 0.859
5 | NCI-H1755 | 0.915 | 1.03 | 1.03 | 0.758 | 1.01 | 1.05 | 1.05 | 0.837 | 0.993 | 0.924 | 0.921 | 0.794 | 0.699 | 0.608 | 0.674 | 0.605 | 0.86 | 1.14 | 0.903 | 0.566
6 | LK-2 | 1.07 | 1.17 | 1.37 | 0.846 | 0.605 | 0.609 | 0.634 | 0.479 | 1.16 | 1.58 | 1.48 | 1.15 | 0.505 | 0.398 | 0.341 | 0.233 | 0.214 | 0.199 | 0.216 | 0.27
7 | EKVX | 0.839 | 0.768 | 1.04 | 0.691 | 0.959 | 0.872 | 1.03 | 0.748 | 0.849 | 0.758 | 0.911 | 0.22 | 0.23 | 0.224 | 0.239 | 0.203 | 0.642 | 0.995 | 0.81 | 0.719
8 | HCC-78 | 0.941 | 0.828 | 1.04 | 0.744 | 0.489 | 0.507 | 0.549 | 0.374 | 0.564 | 0.475 | 0.579 | 0.525 | 0.769 | 0.664 | 0.636 | 0.652 | 0.336 | 0.312 | 0.37 | 0.312
9 | PC-3 [JPC-3] | 1 | 1.11 | 1.01 | 0.866 | 1.02 | 1.02 | 0.995 | 0.876 | 0.98 | 1.14 | 1 | 0.784 | 0.437 | 0.46 | 0.494 | 0.441 | 0.953 | 1.2 | 1.06 | 0.886
10 | NCI-H322M | 0.872 | 0.941 | 0.959 | 0.768 | 0.988 | 0.935 | 0.958 | 0.803 | 0.959 | 0.933 | 0.984 | 0.762 | 0.753 | 0.746 | 0.838 | 0.604 | 1.08 | 0.982 | 0.896 | 0.905
11 | NCI-H1355 | 0.834 | 0.891 | 1.06 | 0.724 | 0.732 | 0.769 | 0.805 | 0.699 | 0.879 | 0.984 | 1.03 | 0.868 | 0.497 | 0.456 | 0.438 | 0.427 | 0.915 | 1.11 | 1.15 | 0.837
12 | CAL-12T | 1.09 | 0.983 | 1.09 | 0.744 | 0.926 | 0.766 | 0.694 | 0.729 | 1.01 | 1.27 | 1.09 | 0.565 | 0.557 | 0.474 | 0.563 | 0.407 | 0.623 | 0.834 | 0.531 | 0.339
13 | NCI-H2126 | 0.96 | 0.887 | 1.08 | 0.902 | 0.785 | 0.673 | 0.713 | 0.683 | 1.14 | 0.899 | 1.23 | 1.11 | 0.524 | 0.483 | 0.502 | 0.481 | 1.04 | 1.14 | 1.07 | 0.981
14 | RERF-LC-KJ | 0.915 | 1.05 | 0.967 | 0.693 | 0.82 | 0.82 | 0.967 | 0.611 | 0.791 | 0.778 | 1.05 | 0.833 | 0.365 | 0.409 | 0.462 | 0.307 | 0.803 | 0.848 | 0.917 | 0.639
15 | NCI-H1563 | 0.967 | 0.936 | 0.88 | 0.758 | 1.22 | 1.2 | 1.02 | 0.934 | 0.918 | 0.878 | 0.858 | 0.659 | 0.706 | 0.633 | 0.647 | 0.626 | 0.875 | 0.845 | 0.643 | 0.601
